Results taken from patent US20080221205A1, “FURAN DERIVATIVES FOR PREVENTING AND CURING OSTEOPOROSIS AND PHARMACEUTICAL COMPOSITIONS CONTAINING THE SAME” (priority 2002, published 2008).

Tested on: osteoclast formation
Assay: Inhibition rate of furan derivatives versus osteoclast formation (TRAP staining)
Assay type: cell-based, mice
Settings: TRAP-positive multinucleated cells, untreated control set as 100%
Protocol: First, bone marrow cells were isolated, as follow. After sacrificing 7-9 week female mice by cervical dislocation, femur and tibia were excised aseptically while removing attached soft tissues. After cutting both ends of long bones, 1 ml of an enzyme solution, containing 0.1% collagenase (Gibco), 0.05% trypsin and 0.5 mM EDTA (Gibco), was injected to the bone marrow cavity at one end using a syringe with a 26-guage needle, and bone marrow was then collected. After shaking the recovered bone marrow for 30 min, bone marrow cells were collected, and cultured in α-minimum essential medium (α-MEM) supplemented with 10% FBS for 24 hrs. Then, non-adherent cells were collected, which are osteoclast pregenitors, aliquotted onto culture plates at a density of 2×10^5 cells per well, and cultured for 8 days in α-MEM supplemented with 20 ng/ml of macrophage-colony stimulating factor (M-CSF, Peprotech, USA) and 30 ng/ml RANKL (Peprotech, USA). During the 8 days of culturing, the cells were treated with the Compound 1. Thereafter, osteoclast formation was investigated by fixing the cultured cells and then carrying out TRAP staining, as described in the following Experimental Example 2.2. In addition, resorption activity of osteoclasts was investigated by measuring the absorption area after removing osteoclasts in cultures in calcium phosphate-coated plates, as described in Experimental Example 2.3, below.
After cell culture, the adherent cells were washed with PBS, and TRAP staining was performed, as follows. After being fixed with citrate-acetate-formaldehyde for 5 min, the cells were incubated for 1 hr in acetate buffer (prewarmed at 37° C., pH 5.0) containing naphthol AS-BI phosphate, fast Garnet GBC and 7 mM tartrate buffer (pH 5.0). TRAP-positive multinucleated cells having 3 or more nuclei were considered as osteoclasts.
Osteoclast pregenitor cells were isolated, and their differentiation to mature osteoclasts was induced, according to the same method as in the Experimental Example 2-1, while treated with each of the furan derivatives of the present invention. According to the same method as in the Experimental Example 2-2, TRAP staining performed, and TRAP-positive multinucleated cells were counted. An inhibition rate of each furan derivative against osteoclast formation was expressed as percentage, wherein the number of stained cells in a control not treated the furan derivative was arbitrarily set as 100% (Tables 14 to 16).

| SMILES | Inhibition rate against osteoclast formation, % (0.1 μM) | Inhibition rate against osteoclast formation, % (1 μM) | Inhibition rate against osteoclast formation, % (10 μM) |
| --- | --- | --- | --- |
| O=Cc1ccc(COC(=O)C(c2ccccc2)(c2ccccc2)c2ccccc2)o1 [Compound 40] | 0% |  |  |
| O=Cc1ccc(COC(=O)Cc2c(F)cccc2F)o1 [Compound 33] | 0% | 3.3% | 50% |
| COC(=O)c1ccc(C)c(NC(=O)c2ccc(COc3ccc(I)cc3)o2)c1 [Compound 152] |  | 0.08% |  |
| COc1ccccc1NC(=O)c1ccc(COc2ccc(C(C)(C)C)cc2)o1 [Compound 189] | 0% | 0% |  |
| C=CCc1ccc(OCc2ccc(C(=O)OC)o2)c(OC)c1 [Compound 59] | 0% | 0% |  |
| COC(=O)c1ccc(COc2ccc3c(c2)CCC3)o1 [Compound 70] | 0% | 0% |  |
| O=Cc1ccc(COC(=O)Nc2ccccc2Cl)o1 [Compound 55] | 0% | 20% | 20% |
| CC(=O)c1ccc(NC(=O)c2ccc(COc3cccc4ccccc34)o2)cc1 [Compound 160] | 0% | 0% |  |
| COc1ccccc1OCc1ccc(C(=O)Nc2ccccc2Cl)o1 [Compound 174] | 0% | 0% |  |
| O=C(Nc1ccc(I)cc1)c1ccc(COc2ccccc2Br)o1 [Compound 190] | 0% | 0% |  |
| O=C(O)c1ccc(COc2ccc(F)cc2)o1 [Compound 102] | 0% | 0% |  |
| O=C(O)c1ccc(COc2cc(Cl)ccc2Cl)o1 [Compound 109] | 0% | 0% |  |
| O=C(Nc1ccc(F)cc1F)c1ccc(COc2c(F)c(F)cc(F)c2F)o1 [Compound 185] | 0% | 0% |  |
| Cc1cc(OCc2ccc(C(=O)Nc3ccc(Cl)cc3)o2)ccc1Cl [Compound 173] | 0% | 0% |  |
| Cc1ccc(OCc2ccc(C(=O)Nc3ccc(F)c(F)c3)o2)cc1C [Compound 186] | 0% | 0% |  |
| CC(C)c1ccc(OCc2ccc(C(=O)O)o2)cc1 [Compound 114] | 0% | 0% | 4.2% |
| COC(=O)c1ccc(COc2ccc(Cl)cc2[N+](=O)[O-])o1 [Compound 66] | 0% | 0% |  |
| Cc1cc(OCc2ccc(C(=O)O)o2)ccc1Cl [Compound 119] | 0% | 0% |  |
| COc1ccccc1OCc1ccc(C(=O)OC(C)C)o1 [Compound 94] | 0% | 0% | 5.9% |
| O=C(Nc1ccc(F)cc1)c1ccc(COc2cccc(Cl)c2)o1 [Compound 141] | 0% | 0% |  |
| O=C(Nc1ccc(Br)cc1)c1ccc(COc2ccc(I)cc2)o1 [Compound 146] | 0% | 0% |  |
| Cc1cc(OCc2ccc(C(=O)N3CCOCC3)o2)ccc1Cl [Compound 132] | 0% | 0% |  |
| CCCCNC(=O)OCc1ccc(C=O)o1 [Compound 53] | 0% | 10% |  |

| SMILES | Inhibition rate against osteoclast formation, % (0.1 μM) | Inhibition rate against osteoclast formation, % (1 μM) | Inhibition rate against osteoclast formation, % (10 μM) |
| --- | --- | --- | --- |
| CCc1cccc(NC(=O)c2ccc(COc3ccc(F)cc3)o2)c1 [Compound 163] | 0% | 0% |  |
| COc1ccc(NC(=O)c2ccc(COc3ccc(Cl)c(C)c3)o2)cc1 [Compound 150] | 0% | 0% |  |
| COc1ccc(F)c(CC(=O)OCc2ccc(C=O)o2)c1 [Compound 42] | 0% |  |  |
| COC(=O)c1ccc(COc2ccccc2[N+](=O)[O-])o1 [Compound 67] | 0% | 0% |  |
| COc1ccc(NC(=O)c2ccc(COc3ccccc3Cl)o2)cc1Cl [Compound 142] | 0% | 0% |  |
| COC(=O)c1ccccc1NC(=O)c1ccc(COc2ccc(Cl)cc2Cl)o1 [Compound 167] | 0% |  |  |
| O=C(O)c1ccc(COc2cccc3ccccc23)o1 [Compound 117] | 0% | 0% |  |
| COc1ccccc1OCc1ccc(C(=O)Oc2ccc(Cl)cc2)o1 [Compound 97] | 0% | 0% |  |
| O=C(Oc1ccccc1)c1ccc(COc2ccccc2Cl)o1 [Compound 98] | 0% | 0% |  |
| CCOc1ccccc1NC(=O)c1ccc(COc2ccc(Cl)cc2[N+](=O)[O-])o1 [Compound 144] | 0% |  |  |
| COC(=O)c1ccc(COc2ccccc2Cl)o1 [Compound 61] | 0% | 0% |  |
| O=Cc1ccc(COC(=O)Nc2ccc(Br)cc2)o1 [Compound 50] | 0% | 10% | 0% |
| Cc1ccc(F)c(NC(=O)c2ccc(COc3ccc(C)cc3[N+](=O)[O-])o2)c1 [Compound 155] | 0% | 0% |  |
| COc1cc([N+](=O)[O-])ccc1NC(=O)c1ccc(COc2ccc(Cl)cc2)o1 [Compound 182] | 0% | 0% |  |
| COC(=O)c1ccc(COc2ccc(Cl)c(C)c2)o1 [Compound 75] | 0% | 0% | 0.78% |
| CC(C)OC(=O)c1ccc(COc2cc(Cl)ccc2Cl)o1 [Compound 95] | 0% | 0% | 0.97% |
| Cc1ccc(F)c(NC(=O)c2ccc(COc3ccccc3[N+](=O)[O-])o2)c1 [Compound 158] | 0% | 0% |  |
| O=C(O)c1ccc(CSCc2ccccc2)o1 [Compound 120] | 0% | 0% |  |
| O=Cc1ccc(COC(=O)Cc2ccsc2)o1 [Compound 36] | 0% |  | 30% |
| O=C(O)c1ccc(COc2cccc(Cl)c2)o1 [Compound 112] | 0% | 0% |  |
| O=C(c1ccc(COc2ccccc2Br)o1)N1CCCCCC1 [Compound 128] |  | 0% |  |
| O=Cc1ccc(COC(=O)Cc2cccc(F)c2)o1 [Compound 37] | 0% | 10% |  |
| O=C(O)c1ccc(COc2ccc(Br)cc2)o1 [Compound 103] | 0% | 0% |  |
